From patent US20070173539A1, “Use of malonomicin and analogs in fungicidal applications” (priority 2006, published 2007)

Columns and labels:
Type in all cases: in vivo
[1] = test system: Erysiphe graminis f. sp. tritici (ERYSGT); assay: Powdery Mildew of Wheat one day protectant (1DP); conditions: wheat (Monon), sprayed to runoff, rate 200 ppm
Protocol: Final treatment volumes were obtained by adding 0.1 percent aqueous Ethomeen T25 or 0.1 percent aqueous Spraymate X77+0.1 percent wt./vol. ammonium sulfate^+. Powdery Mildew of Wheat (Erysiphe graminis f. sp. tritici-[…]) Wheat (cultivar Monon) was grown in plastic pots (6.2 cm×8.75 cm) containing 50 percent mineral soil, 50 percent Metro-Mix 360 (W.R Grace and Co.) until the seedlings were 10-20 cm tall. These plants were then sprayed to runoff with the test compound at a rate of 200 ppm. After 24 hours the test plants were inoculated with Erysiphe graminis f. sp. tritici ([…]) by dusting spores from stock plants onto the test plants. The plants were then transferred to the greenhouse until disease developed on the untreated control plants.

[2] = test system: Puccinia recondita f. sp. tritici (PUCCRT); assay: Brown Rust of Wheat one day protectant (1DP); conditions: wheat (Monon), sprayed to runoff, rate 200 ppm
Protocol: (§1) Final treatment volumes were obtained by adding 0.1 percent aqueous Ethomeen T25 or 0.1 percent aqueous Spraymate X77+0.1 percent wt./vol. ammonium sulfate^+. Brown Rust of Wheat (Puccinia recondita f. sp. tritici-PUCCRT) (1 DP) Wheat (cultivar Monon) was grown in plastic pots (6.2 cm×8.75 cm) containing 50 percent mineral soil, 50 percent Metro-Mix 360 (W.R Grace and Co.) until the seedlings were 10-20 cm tall. These plants were then sprayed to runoff with the test compound at a rate of 200 ppm. After 24 hours the test plants were inoculated by spraying with an aqueous spore suspension of Puccinia recondita f. sp. tritici (PUCCRT). The plants were then transferred to a dew chamber for 24 hours, then to the greenhouse until disease developed on the untreated control plants.

[3] = test system: Phytophthora infestans (PHYTIN); conditions: 1DP, tomato (rutgers), sprayed to runoff, rate 200 ppm
[4] = test system: Septoria tritici (SEPTTR); assay: Speckled Leaf Blotch of Wheat one day protectant (1DP); conditions: wheat (Monon), sprayed to runoff, rate 200 ppm
Protocol: as §1, with “Speckled Leaf Blotch” for “Brown Rust”, “(Septoria tritici-[…])” for “(Puccinia recondita f. sp. tritici-PUCCRT) (1 DP)”, “Septoria” for “Puccinia recondita f. sp.”, “([…]).” for “(PUCCRT).”

[5] = test system: Leptosphaeria nodorum (LEPTNO); assay: Glume Blotch of Wheat one day protectant (1DP); conditions: wheat (Yuma), sprayed to runoff, rate 200 ppm
Protocol: as §1, with “Glume Blotch” for “Brown Rust”, “(Leptosphaeria nodorum-[…])” for “(Puccinia recondita f. sp. tritici-PUCCRT) (1 DP)”, “Yuma)” for “Monon)”, “Co.).” for “Co.)”, “Leptosphaeria nodorum ([…]).” for “Puccinia recondita f. sp. tritici (PUCCRT).”

[6] = test system: Puccinia recondita f. sp. tritici (PUCCRT); assay: Brown Rust of Wheat Drop Line Test; conditions: Drop Line Test 0.5 μg/leaf, 2 microliter drop on wheat leaf
Protocol: as §1, with “Brown” for “Final treatment volumes were obtained by adding 0.1 percent aqueous Ethomeen T25 or 0.1 percent aqueous Spraymate X77+0.1 percent wt./vol. ammonium sulfate^+. Brown”, “plants. In Example 3, a Drop Line Test was used, wherein instead of spraying the plant to runoff, a 2 microliter drop was placed on the wheat leaf and observed for disease control.” for “plants.”

[7] = test system: Plasmopara viticola (PLASVI); assay: Downy Mildew of Grape one day protectant (1DP); conditions: grape (Carignane), sprayed to runoff, rate 200 ppm
Protocol: Final treatment volumes were obtained by adding 0.1 percent aqueous Ethomeen T25 or 0.1 percent aqueous Spraymate X77+0.1 percent wt./vol. ammonium sulfate^+. Downy Mildew of Grape (Plasmopara viticola-[…]) Vines (cultivar Carignane) were grown from seed in a soilless peat-based potting mixture “Metro-Mix 360” (W.R Grace and Co.) until the seedlings were 10-20 cm tall. These plants were then sprayed to runoff with the test compound at a rate of 200 ppm. After 24 hours the test plants were inoculated by spraying with an aqueous sporangia suspension of Plasmopara viticola ([…]). The plants were then transferred to a dew chamber for 24 hours, then to the greenhouse until disease developed on the untreated control plants.

| Compound | ERYSGT percent control of plant disease [1] | PUCCRT percent control of plant disease [2] | PHYTIN percent control of plant disease [3] | SEPTTR percent control of plant disease [4] | LEPTNO percent control of plant disease [5] | PUCCRT percent control of plant disease [6] | PLASVI percent control of plant disease [7] |
| --- | --- | --- | --- | --- | --- | --- | --- |
| NC[C@@H]1NC(=O)C(C(=O)CC(CC(=O)O)(NC(=O)[C@@H](N)CO)C(=O)O)=C1O (some centres unmarked) [Compound VI] | − (− = 0-29 percent control of plant disease) | ++ (++ = 75-100 percent control of plant disease) | − (− = 0-29 percent control of plant disease) | + (+ = 30-74 percent control of plant disease) | − (− = 0-29 percent control of plant disease) | – | – |
| C[C@H](N)C(=O)NC(CC(=O)O)(CC(=O)C1C(=O)N[C@@H](CN)C1=O)C(=O)O (some centres unmarked) [Compound III] | – | – | – | – | – | + (+ = 30-74 percent control of plant disease) | – |
| NC[C@@H]1NC(=O)C(C(=O)CC(CC(=O)O)(NC(=O)[C@@H](N)CO)C(=O)O)=C1O (some centres unmarked) [Compound V] | − (− = 0-29 percent control of plant disease) | ++ (++ = 75-100 percent control of plant disease) | + (+ = 30-74 percent control of plant disease) | − (− = 0-29 percent control of plant disease) | − (− = 0-29 percent control of plant disease) | – | – |
| C[C@H](N)C(=O)NC(CC(=O)C1=C(O)[C@H](CN)NC1=O)(C(=O)O)C(=O)O [Compound II] | − (− = 0-29 percent control of plant disease) | ++ (++ = 75-100 percent control of plant disease) | + (+ = 30-74 percent control of plant disease) | + (+ = 30-74 percent control of plant disease) | − (− = 0-29 percent control of plant disease) | – | − (− = 0-29 percent control of plant disease) |
